Measurements from patent US20120220564A1, “SELECTIVE CALCIUM CHANNEL MODULATORS” (Zalicus Pharmaceuticals Ltd., priority 2009, published 2012).

System: Lamina I/II spinal cord neurons
Assay: Lamina assay, current-clamp recordings in spinal cord slices
Type: cell-based, rat
Settings: Lamina I and II neurons
Description: Male Wistar rats (P6 to P9 for voltage-clamp and P15 to P18 for current-clamp recordings) were anaesthetized through intraperitoneal injection of Inactin (Sigma). The spinal cord was then rapidly dissected out and placed in an ice-cold solution protective sucrose solution containing (in mM): 50 sucrose, 92 NaCl, 15 D-Glucose, 26 NaHCO3, 5 KCl, 1.25 NaH2PO4, 0.5 CaCl2, 7 MgSO4, 1 kynurenic acid, and bubbled with 5% CO2/95% O2. The meninges, dura, and dorsal and ventral roots were then removed from the lumbar region of the spinal cord under a dissecting microscope. The “cleaned” lumbar region of the spinal cord was glued to the vibratome stage and immediately immersed in ice cold, bubbled, sucrose solution. For current-clamp recordings, 300 to 350 μm parasagittal slices were cut to preserve the dendritic arbour of lamina I neurons, while 350 to 400 μm transverse slices were prepared for voltage-clamped […] channel recordings. Slices were allowed to recover for 1 hour at 35° C. in Ringer solution containing (in mM): 125 NaCl, 20 D-Glucose, 26 NaHCO3, 3 KCl, 1.25 NaH2PO4, 2 CaCl2, 1 MgCl2, 1 kynurenic acid, 0.1 picrotoxin, bubbled with 5% CO2/95% O2. The slice recovery chamber was then returned to room temperature (20 to 22° C.) and all recordings were performed at this temperature.
Neurons were visualized using IR-DIC optics (Zeiss Axioskop 2 FS plus, Gottingen, Germany), and neurons from lamina I and the outer layer of lamina II were selected based on their location relative to the substantia gelatinosa layer. Neurons were patch-clamped using borosilicate glass patch pipettes with resistances of […] Current-clamp recordings of lamina I/II neurons in the intact slice, the external recording solution was the above Ringer solution, while the internal patch pipette solution contained (in mM): 140 KGluconate, 4 NaCl, 10 HEPES, 1 EGTA, 0.5 MgCl2, 4 MgATP, 0.5 Na2GTP, adjusted to pH 7.2 with 5 M KOH and to 290 mOsm with D-Mannitol (if necessary). […]

O=C(CC1CCN(C(=O)[C@H]2CCCCN2)CC1)Nc1cc(C(F)(F)F)cc(C(F)(F)F)c1 [Compound 74]
% Spike Change Mean: −53%
